Marks after values point to notes of the source that are not given here.
How the values were obtained:
Assay type in all cases: physicochemical
[1] = Solubility of cholecalciferol and cholecalciferol phosphate (disodium, acid); details: visual solubility
Protocol: Aliquots of cholecalciferol, cholecalciferol phosphate disodium, and cholecalciferol phosphate acid were added to a range of solvents including propylene glycol (PG), distilled water, methanol, ethyl acetate, ethanol, n-hexane, and the visual solubility was determined. A precise assessment of the saturation solubility was for some of the solvent systems was made using high-performance liquid chromatography (HPLC). In the HPLC solubility studies, an excess of each solute was added into 2 mL of each test solvent. The solutions were left stirring overnight at room temperature, (RT), 22° C. The saturation of the solutions was confirmed by the visual appearance of crystals and the drug suspensions were filtered through 0.2 μm cellulose acetate syringe filters, diluted with excess of mobile phase, and the solute concentration of each sample was assessed using HPLC.

[2] = Cholecalciferol phosphate adhesive suitability / compatibility screen
Protocol: Pre-formulation studies were performed to determine the compatibility of cholecalciferol phosphate (disodium and acid forms) with a range of adhesives (Table 38) that could be used to manufacture of the patch. The compatibility of the drugs with the patch excipients was assessed through checking the clarity of the mixture.
The compatibility of the adhesive with solvents and drug was established. The maximum drug loading in the adhesive following solvent evaporation was determined by mixing the drug, adhesive and co-solvents until a clear solution is obtained at different drug:adhesive ratios by placing a drop of solution onto patch backing sheet, leaving the slide to dry for 3-4 hours and examining the formed fil on the surface of the backings for evidence of drug crystals were assessed using KKmoon digital magnifier with LED light (China). Following patch optimization, the drug-adhesive solution was cast as 10×10 cm squares using of backing (3M™ Scotchpak™ Polyester Backing Film Laminate 9730). A sufficient volume of the adhesive was applied to achieve a target coating of 8 mg/cm^2. Following complete drying of the solvents, the adhesive layer was covered by M3 Release liner (SCOTCHPAK 9755), compressed, and then cut using 34 mm circular manual die cutter (SCP Super Cutting Press).

[3] = Chemical stability of cholecalciferol phosphate acid in skin permeation solvents; details: 24 h, 37° C.
Protocol: To assess the chemical stability of the cholecalciferol phosphate acid in the solutions employed in the skin permeation experiments a 1 mg/mL solution of cholecalciferol phosphate acid in propylene glycol (PG) was prepared and incubated at 37° C. for 24 hours. In addition 100 μg/mL cholecalciferol phosphate acid in 90:10 methanol:water and in 80:20 PG:water were also incubated at 37° C. for 24 hours. The concentration pre and post incubation was compared to determine the chemical stability during the permeation studies.

- Solubility ([1]; solvent Ethanol): ~4* mg/mL
- Solubility ([1]; solvent Ethyl acetate): <0.1* mg/mL
- Solubility ([1]; solvent Hexane): ~40* mg/mL
- Solubility ([1]; solvent Methanol (0.1% TFA)): <0.1* mg/mL
- Solubility ([1]; solvent PG): ~10* mg/mL
- Solubility ([2]; DURO-TAK 87-2052 0.268 mL, 10 mg drug, 0.5 mL hexane, 0.4 mL ethyl acetate): Clear
- Solubility ([2]; DURO-TAK 87-9301 100 mg, 5 mg drug, 5 mg dodecyl amine, 0.5 mL methanol, 0.25 mL ethyl acetate): Clear
- Solubility ([2]; Duro-TAK 87-2516 100 mg, 10 mg drug, 10 mg dodecyl amine, 0.5 mL methanol, 0.5 mL ethyl acetate): Clear
- Solubility ([2]; Duro-TAK 87-2516 100 mg, 10 mg drug, 10 mg dodecyl amine, 1 mL methanol, 1.25 mL ethyl acetate): Clear
- Solubility ([2]; Duro-TAK 87-2516 100 mg, 10 mg drug, 10 mg dodecyl amine, 1.5 mL methanol, 1 mL ethyl acetate): Clear
- Solubility ([2]; Oppanol B12 1.2 g, 65 mg drug, 15.9 mL hexane): Clear
- Solubility ([2]; Oppanol B12 1.2 g, 65 mg drug, 15.9 mL hexane, 65 mg dodecyl amine): Clear
- Solubility ([2]; Oppanol B12 2.3 g, 130 mg drug, 32 mL hexane): Clear
- compatibility with adhesives and organic solvents ([2]; Oppanol B12, DURO-TAK 87-2516, 87-9301 and 87-2052): showed compatibility
- stability in donor, extraction and receiver solvent [3]: appropriate stability
Compound: C=C1CCC(OP(=O)(O)O)CC1=CC=C1CCCC2(C)C1CCC2C(C)CCCC(C)C (stereo not drawn) [Cholecalciferol phosphate acid, cholecalciferol phosphate acid]

Reference: US20260306421A1, “SYSTEMS AND METHODS FOR TRANSDERMAN PATCH DELIVERY” (VITAMAX PATCH WHOLESALER LLC, priority 2022, published 2026)
